US20240325548A1, “DYNAMIC BIOACTIVE SCAFFOLDS AND THERAPEUTIC USES THEREOF AFTER CNS INJURY” (Northwestern University, priority 2021, published 2024)

Key:
[1] = tested on: hNPCs; experiment: hNPC attachment, proliferation and phenotype on co-assembled PA coatings (EdU, SOX-2, PAX6); format: cell-based, human
From the text: Neural progenitor cells (NPCs) were differentiated from human embryonic stem cells HUES 64 (Harvard University) (see FIG. 2C). In short, 70% confluent stem cell cultures grown in Matrigel (Thermo Fisher) coated plates with mTESR medium (STEMCELL Technologies), were switched to N2B27 medium (50% DMEM: F12, 50% Neurobasal, supplemented with NEAA, Glutamax, N2 and B27; Gibco) containing dual SMAD inhibitors (SB431542, DNSK International and LDN-193189, Tocris) for 12 days to induce the generation of neural progenitors. Neuralization was enhanced by supplementing medium with laminin from day 5 to 12. Next, neural rosettes were dissociated with neural rosette selection reagent (STEMCELL Technologies) to obtain NPCs, which are expanded in N2B27 (Gibco) medium supplemented with bFGF (Millipore). For experimentation in the different PA platforms, NPCs were dissociated with Accutase (Innovative Cell technology), and cultured in the distinct platforms with DMEM: F12+N2+B27 medium with hyclone penicillin-streptomycin (GE Healthcare) and ascorbic acid (0.2 μg/mL; Sigma-Aldrich).
(§1) For IKVAV PA treatments, hNPCs were cultured on ornithine coatings (German Glass, Chemglass Life Science) in 6 well and 24 well plates at a density of 500,000 cells/well and 80,000 cells/well respectively. hNPCs were treated with […] of IKVAV PAs ([PA]=6 mM, [KCl]=3 mM, [NaCl]=150 mM) or recombinant laminin protein (10 mg/mL) in solution. IKVAV PA2 and IKVAV PA5 were also mixed with 5 mM CaCl2) at a ratio PA:CaCl2) 6:1 to treat hNPCs. For 2D experiments, hNPCs were cultured on the different IKVAV PAs or laminin coatings in 6 well and 24 well plates at densities mentioned above. For co-assembled experiments, hNPCs were cultured on the different co-assembled PA coatings in 6 well and 24 well plates at a density of 400,000 cells/well and 50,000 cells/well respectively.
(§2) hNPCs were fed 4 times a week with DMEM: F12+N2^+B27 medium with hyclone penicillin-streptomycin and ascorbic acid. After 24 h, 72 h 1- or 2-weeks in vitro, cell lysates were harvested or fixed for WB or ICC, respectively. Three replicates per condition and at least three independent experiments were carried out for all conditions investigated.
For the hNPCs proliferation assay, 2 μM of the thymidine analog 5-ethynyl-2′-deoxyuridine (EdU, Thermo Fisher) was incorporated into the culture medium for 24 h. Cells were fixed at the indicated time points in 4% paraformaldehyde (PFA) for 15 min at RT. After fixation, samples were washed in PBS twice and then stained with Click-iT™ EdU Cell Proliferation Kit containing 11 mM CuSO4 (from 50 mM stock) and 1 μg/mL of Alexa Fluor-555 azide (from 0.5 mg/mL, Thermo Fisher) for 30 minutes at RT in the dark. The staining cocktail was then removed, and cells were washed with PBS. Then, hNPCs were counterstained with anti-rabbit SOX-2 antibody following the immunofluorescence protocol described below and 4′, 6-diamidino-2-phenylindole (DAPI, Thermo Fisher) at 5 μg/mL in PBS for 20 min at RT. The cells were then washed with PBS and mounted with Immu-Mount (Fisher Scientific) for imaging.
For immunofluorescence, fixed primary cultures or free-floating tissue sections (40 m Thick) were incubated in blocking buffer containing 0.02% Triton-X (Sigma-Aldrich), 1% NHS (Gibco) and PBS 1× (Gibco). Samples were incubated with primary antibodies over night at 4° C. Alexa-488, Alexa-555 and/or Alexa-647 (1:500, Thermofisher) were used as secondary antibodies. DAPI (1:500, Thermofisher) was used to stain nuclei. […]

[2] = target: T1, FGFR1 and ITGB1 (Homo sapiens, UniProt P11362); experiment: p-FGFR1 and active ITGB1 in hNPCs on co-assembled PA coatings (WB); format: cell-based
T1 construct: endogenous in cells; host or cells: hNPCs differentiated from human embryonic stem cells HUES 64, seeded on co-assembled PA coatings
T1 sequence (P11362 22-822): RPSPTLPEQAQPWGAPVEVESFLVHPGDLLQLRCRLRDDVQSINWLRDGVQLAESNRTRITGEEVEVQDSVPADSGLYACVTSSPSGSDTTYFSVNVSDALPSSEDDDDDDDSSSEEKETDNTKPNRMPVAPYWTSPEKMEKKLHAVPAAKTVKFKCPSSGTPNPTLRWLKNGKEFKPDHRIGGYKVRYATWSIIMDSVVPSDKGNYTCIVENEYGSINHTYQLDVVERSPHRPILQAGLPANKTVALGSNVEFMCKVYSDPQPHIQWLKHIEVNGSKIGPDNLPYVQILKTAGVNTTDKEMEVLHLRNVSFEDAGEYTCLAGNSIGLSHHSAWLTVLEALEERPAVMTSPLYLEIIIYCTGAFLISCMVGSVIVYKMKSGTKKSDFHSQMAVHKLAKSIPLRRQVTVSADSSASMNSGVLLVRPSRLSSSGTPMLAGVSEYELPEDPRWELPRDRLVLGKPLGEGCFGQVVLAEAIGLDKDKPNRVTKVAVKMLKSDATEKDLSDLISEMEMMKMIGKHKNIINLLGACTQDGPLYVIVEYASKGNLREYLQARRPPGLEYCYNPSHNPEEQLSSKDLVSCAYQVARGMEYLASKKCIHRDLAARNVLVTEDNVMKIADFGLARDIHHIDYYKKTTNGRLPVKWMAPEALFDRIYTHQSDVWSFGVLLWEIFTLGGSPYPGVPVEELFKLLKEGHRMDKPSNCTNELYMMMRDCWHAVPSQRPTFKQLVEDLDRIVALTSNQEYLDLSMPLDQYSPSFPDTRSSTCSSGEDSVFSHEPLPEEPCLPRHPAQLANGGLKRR
Protocol: as §1, §2
(§3) RIPA buffer (Thermofisher) with a cocktail of Halt Protease and Phosphatase Inhibitors (Thermofisher) was used to extract protein from in vitro and in vivo samples. For in vivo studies, spinal cord tissue was then sonicated using a horn sonicator (Branson) to break up the tissue. […]

[3] = target: T2, FGFR1 (Homo sapiens, UniProt P11362); experiment: FGF-2 intracellular signaling pathway in HUVECs (WB p-FGFR1, p-ERK1/2); format: cell-based
T2 construct: host or cells: HUVECs (pooled donor)
T2 sequence (P11362 22-822): as above
Protocol: (§4) Human umbilical vein cord (HUVECs) (pooled donor, LONZA, Allendale, New Jersey) were grown to 70-80% confluence for each experiment (P2-P4) in a T-75 cell culture flask using complete media (Endo GRO-VEGF Complete Culture Media Kit, Millipore) supplemented with 1% penicillin-streptomycin. Media was changed every 3 days.
Treatments were prepared by dissolving the co-assembled PAs in media without serum. The total concentration of FGF2 PAs per treatment was 0.5 μM. FGF-2 native protein (Peprotech) was resuspended and used at 0.25 nM. For western blot experiments, HUVEC were cultured in 12 well plates at a density of approximately 150,000 cells/well for 2 days in vitro before being treated. Treatments were added for 2 h-2 days in vitro before cell lysates were harvested or cells were fixed. For PA coatings, PAs were painted on the coverslips (German Glass, Chemglass Life Science) or tissue culture plates as described in the Co-assembled PA preparation section. Three replicates per condition and three independent experiments were carried out for all conditions investigated.
as §3

[4] = tested on: human umbilical vein vascular endothelial cells (HUVECs); experiment: HUVEC branching / capillary network formation; format: cell-based; conditions: within 48 h of culture
Protocol: as §4
Treatments were prepared by dissolving the co-assembled PAs in media without serum. The total concentration of FGF2 PAs per treatment was 0.5 μM. FGF-2 native protein (Peprotech) was resuspended and used at 0.25 nM. For western blot experiments, HUVEC were cultured in 12 well plates at a density of approximately 150,000 cells/well for 2 days in vitro before being treated. Treatments were added for 2 h-2 days in vitro before cell lysates were harvested or cells were fixed. […]
To assess in vitro tubulogenesis and in vivo angiogenesis, an ImageJ (Fiji) script was established to automatically calculate 1) area fraction of blood vessels, 2) blood vessels length, and 3) number of branches. Images were processed, binarized and analyzed. Newly generated blood vessels in vivo were identified by quantifying the amount of CD31/BrdU double-positive cells within the region of interest. […] The quantified cross sections were chosen as the first serial cross sections within the lesion that had DiI staining.

- P-FGFR-1 expression [2]: highly expressed
- levels of p-FGFR1 and downstream p-ERK1/2 [3]: high levels
Substance: native FGF-2: FGF-2 native protein (Peprotech), positive control
- percentage of proliferating EdU+ and SOX2+ cells [1]: increased
- branching and vessel-like capillary network formation [4]: extensive branching and formation of vessel-like capillary networks
